How the values were obtained:
BRD4 (BDII_E352-M457) = molecular target: T1, BRD4 (BDII_E352-M457) (Homo sapiens, UniProt O60885); assay: TR-FRET bromodomain binding assay, BRD4 second bromodomain
T1 construct: protocol; made in house
Experimental: (§1) A time-resolved fluorescence resonance energy transfer (TR-FRET) assay was used to determine the affinities of compounds of the Examples listed in Table 1 for each bromodomain of BRD4. His-tagged first (BD1: amino acids K57-E168) and second (BD2: amino acids E352-E168) bromodomains of BRD4 were expressed and purified. An Alexa647-labeled BET-inhibitor was used as the fluorescent probe in the assay.
(§2) Compound dilution series were prepared in DMSO via an approximately 3-fold serial dilution from one of the following:
(§3) Assay method D: 500 μM-8.5 nM
(§4) Assay method E: 0.47 mM to 7.8 nM
(§5) Assay method F: 250 μM-4.2 nM
(§6) Assay method G: 0.047 mM to 0.78 nM
(§7) or 5-fold serial dilution from one of the following:
(§8) Assay method A: 2.5 mM-800 nM
(§9) Assay method B: 2.5 mM-797 nM
(§10) For Assay methods A, C, D, and F: Compounds were then diluted 6:100 in assay buffer (20 mM Sodium Phosphate, pH 6.0, 50 mM NaCl, 1 mM Ethylenediaminetetraacetic acid, 0.01% Triton X-100, 1 mM DL-Dithiothreitol) to yield 3× working solutions. Six microliters (μL) of the working solution was then transferred to white, low-volume assay plates (Costar #3673). A 1.5× assay mixture containing His-tagged bromodomain, Europium-conjugated anti-His antibody (Invitrogen PV5596) and the Alexa-647-conjugated probe molecule was also prepared. Twelve μL of this solution were added to the assay plate to reach a final volume of 18 μL.
(§11) For Assay methods B, E, and G: Compound dilutions were added directly into white, low-volume assay plates (Perkin Elmer Proxiplate 384 Plus#6008280) using a Labcyte Echo in conjunction with Labcyte Access and Thermo Multidrop CombinL robotics. Compounds were then suspended in eight microliters (μL) of assay buffer (20 mM Sodium Phosphate, pH 6.0, 50 mM NaCl, 1 mM Ethylenediaminetetraacetic acid disodium salt dihydrate, 0.01% Triton X-100, 1 mM DL-Dithiothreitol) containing His-tagged bromodomain, Europium-conjugated anti-His antibody (Invitrogen PV5596) and Alexa-647-conjugated probe.
(§12) The final concentration of 1× assay mixture for assay methods A, B, C, D, E, F, and G contains 2% DMSO, 8 nM His-tagged bromodomain, 1 nM Europium-conjugated anti-His-tag antibody and 100 nM or 30 nM probe (for BDI or BDII, respectively) and compound concentration in the range of: 50 μM-16 nM for method A, 49.02 μM-15.63 nM for method B, 25 μM-423 pM for method C, 10 μM-169 pM for method D, 9.19 μM 150 pM for method E, 5 μM-85 pM for method F, and 0.92 μM-15 pM for method G.
(§13) After a one-hour equilibration at room temperature, TR-FRET ratios were determined using an Envision multilabel plate reader (Ex 340, Em 495/520).
(§14) TR-FRET data were normalized to the means of 24 no-compound controls (“high”) and 8 controls containing 1 μM un-labeled probe (“low”). Percent inhibition was plotted as a function of compound concentration and the data were fit with the 4 parameter logistic equation to obtain IC50s Inhibition constants (Ki) were calculated from the IC50s, probe Kd and probe concentration. Typical Z′ values were between 0.65 and 0.75. The minimum significant ratio was determined to evaluate assay reproducibility (Eastwood et al., (2006) J Biomol Screen, 11: 253-261). The MSR was determined to be 2.03 for BDI and 1.93 for BDII, and a moving MSR (last six run MSR overtime) for both BDI and BDII was typically <3.

[1] = tested on: LPS induced IL-6 production; assay: LPS (lipopolysaccharide) induced IL-6 production mouse assay; format: in vivo, mice; conditions: CD1 female mice, 3 mg/kg oral 1 h before LPS 2.5 mg/kg ip, serum IL-6 2 h after LPS; p<0.05
Experimental: LPS (Lipopolysaccharide) Induced IL-6 Production Mouse Assay
Compounds of the Examples listed in Table 2 were assayed for their ability to inhibit LPS (lipopolysaccharide) induced IL-6 (Interleukin-6) production in mice. Fox Chase SCID® female mice (Charles Rivers Labs, 5 per group) or CD1 female mice (5 mice per group) received an intraperitoneal challenge of lipopolysaccharide (2.5 mg/kg, L2630 E. coli 0111:B4) one hour after oral administration of compounds. Mice were euthanized 2 hours after lipopolysaccharide injection, blood was removed by cardiac puncture, and then the serum harvested from the blood samples was frozen at −80° C. On the day of the assay the serum samples were brought to room temperature and then diluted 1:20 in phosphate-buffered saline containing 2% bovine serum albumin. Interleukin-6 measurements were performed using a cytokine assay from Meso Scale Discovery (Gaithersburg, Md.) for mouse serum analysis according to the manufacturer's protocol and read on a SECTOR Imager 6000 (Meso Scale Discovery, Gaithersburg, Md.) instrument. Statistical analysis was performed using Prism software (version 5.0) incorporating Dunnett's one way ANOVA. The IL-6 mean and standard deviation of the group of vehicle treated animals were compared with the IL-6 mean and standard deviation of the group treated with drug. A p value <0.05 means that there is less than a 5% probability that the mean values in the two groups are equal.

[2] = tested on: breast cancer cell line MX-1; assay: MX-1 cell line proliferation assay; format: cell-based; conditions: Homo sapiens, MX1; MX-1 cells, 3-day (72 h) proliferation, Cell Titer Glo; read-out: Cellular proliferation: EC50
Experimental: MX-1 Cell Line Proliferation Assay
The impact of compounds of the Examples on cancer cell proliferation was determined using the breast cancer cell line MX-1 (ATCC) in a 3-day proliferation assay and the data are reported in Table 1. MX-1 cells were maintained in RPMI 1640 medium (Sigma) supplemented with 10% FBS at 37 C.° and an atmosphere of 5% CO2. For compound testing, MX-1 cells were plated in 96-well black bottom plates at a density of 5000 cells/well in 90 μL of culture media and incubated at 37° overnight to allow cell adhesion and spreading. Compound dilution series were prepared in DMSO via a 3-fold serial dilution from 3 mM to 0.1 μM. The DMSO dilution series were then diluted 1:100 in phosphate buffered saline, and 10 μL of the resulted solution were added to the appropriate wells of the MX-1 cell plate. The final compound concentrations in the wells were 3, 1, 0.3, 0.1, 0.03, 0.01, 0.003, 0.001, 0.0003 and 0.0001 μM.
Luminescence readings from the Cell Titer Glo assay were normalized to the DMSO treated cells and analyzed using the GraphPad Prism software with sigmoidal curve fitting to obtain EC50s. The minimum significant ratio (MSR) was determined to evaluate assay reproducibility (Eastwood et al., (2006) J Biomol Screen, 11: 253-261). The overall MSR was determined to be 2.1 and a moving MSR (last six run MSR overtime) has been <2.

BRD4 (BDI_K57-E168) = molecular target: T2, BRD4 (BDI_K57-E168) (Homo sapiens, UniProt O60885); assay: TR-FRET bromodomain binding assay, BRD4 first bromodomain; conditions: His-tagged BD1, 100 nM Alexa647 probe; assay protocol D or F as given per row in c1; Ki calculated from IC50
T2 construct: BD1: amino acids K57-E168; made in house
Experimental: as §1, §2, §3, §4, §5, §6, §7, §8, §9, §10, §11, §12, §13, §14

CN1CCN(CC(=O)Nc2ccc3c(c2)-c2cn(C)c4c(=O)[nH]cc(c24)CN3c2ccc(F)cc2)CC1 [Example 36]
Ki (BRD4 (BDII_E352-M457)): 23.2 nM
% inhibition at 3 mg/kg (LPS induced IL-6 production) [1]: 68%
EC50 [2]: 16.8 nM
Ki (BRD4 (BDI_K57-E168)): 1.34 nM

Cc1ccc(F)cc1CNC(=O)c1ccc2c(c1)-c1cn(C)c3c(=O)[nH]cc(c13)CN2c1ccc(F)cc1 [Example 57]
Ki (BRD4 (BDII_E352-M457)): 29 nM
EC50 [2]: 54.9 nM
Ki (BRD4 (BDI_K57-E168)): 1.72 nM

Cn1cc2c3c(c[nH]c(=O)c31)CN(c1ccc(F)cc1)c1ccc(C(=O)NCc3cc(F)ccc3Br)cc1-2 [Example 58]
Ki (BRD4 (BDII_E352-M457)): 12.7 nM
EC50 [2]: 63.3 nM
Ki (BRD4 (BDI_K57-E168)): 1.83 nM

Cn1cc2c3c(c[nH]c(=O)c31)CN(c1ccc(F)cc1)c1ccc(C(=O)NCc3cc(F)ccc3Cl)cc1-2 [Example 60]
Ki (BRD4 (BDII_E352-M457)): 46.1 nM
EC50 [2]: 75.5 nM
Ki (BRD4 (BDI_K57-E168)): 3.2 nM

Cn1cc2c3c(c[nH]c(=O)c31)CN(c1ccc(F)cc1)c1ccc(C(=O)NCc3cnn(Cc4ccccc4)c3)cc1-2 [Example 62]
Ki (BRD4 (BDII_E352-M457)): 33.1 nM
EC50 [2]: 65.6 nM
Ki (BRD4 (BDI_K57-E168)): 1.62 nM

Cn1cc2c3c(c[nH]c(=O)c31)CN(c1ccc(F)cc1)c1ccc(C(=O)NCc3ccccc3)cc1-2 [Example 63]
Ki (BRD4 (BDII_E352-M457)): 22 nM
EC50 [2]: 49.9 nM
Ki (BRD4 (BDI_K57-E168)): 1.98 nM

COc1ccc(F)cc1CC(=O)Nc1ccc2c(c1)-c1cn(C)c3c(=O)[nH]cc(c13)CN2c1ccc(F)cc1 [Example 65]
Ki (BRD4 (BDII_E352-M457)): 44.9 nM
EC50 [2]: 55.5 nM
Ki (BRD4 (BDI_K57-E168)): 3.92 nM

Cn1cc2c3c(c[nH]c(=O)c31)CN(c1ccc(F)cc1)c1ccc(NC(=O)Cc3cc(F)ccc3[N+](=O)[O-])cc1-2 [Example 66]
Ki (BRD4 (BDII_E352-M457)): 30.1 nM
EC50 [2]: 44.6 nM
Ki (BRD4 (BDI_K57-E168)): 2.14 nM

CCS(=O)(=O)Nc1cnc2c(c1)-c1cn(C)c3c(=O)[nH]cc(c13)CN2c1ccc(F)cc1F [Example 68]
Ki (BRD4 (BDII_E352-M457)): 1.79 nM
EC50 [2]: 17.5 nM
Ki (BRD4 (BDI_K57-E168)): 1.26 nM

Cn1cc2c3c(c[nH]c(=O)c31)CN(c1ccc(Cl)cc1)c1ncc(N)cc1-2 [Example 69]
Ki (BRD4 (BDII_E352-M457)): 1.89 nM
EC50 [2]: 4.4 nM
Ki (BRD4 (BDI_K57-E168)): 0.78 nM

CCS(=O)(=O)Nc1cnc2c(c1)-c1cn(C)c3c(=O)[nH]cc(c13)CN2c1ccc(Cl)cc1 [Example 70]
Ki (BRD4 (BDII_E352-M457)): 0.708 nM
EC50 [2]: 24.4 nM
Ki (BRD4 (BDI_K57-E168)): 0.79 nM

Cn1cc2c3c(c[nH]c(=O)c31)CN(c1ccc(Cl)cc1)c1ncc(NS(C)(=O)=O)cc1-2 [Example 71]
Ki (BRD4 (BDII_E352-M457)): 2.21 nM
EC50 [2]: 35.6 nM
Ki (BRD4 (BDI_K57-E168)): 1.65 nM

CC(=O)Nc1cnc2c(c1)-c1cn(C)c3c(=O)[nH]cc(c13)CN2c1ccc(Cl)cc1 [Example 72]
Ki (BRD4 (BDII_E352-M457)): 4.41 nM
% inhibition at 3 mg/kg (LPS induced IL-6 production) [1]: 63%
EC50 [2]: 10.1 nM
Ki (BRD4 (BDI_K57-E168)): 2.56 nM

CCS(=O)(=O)Nc1ccc2c(c1)-c1cn(C)c3c(=O)[nH]cc(c13)CN2C1CCN(C(C)=O)CC1 [Example 74]
Ki (BRD4 (BDII_E352-M457)): 17 nM
EC50 [2]: > 1000 nM
Ki (BRD4 (BDI_K57-E168)): 3.61 nM

CC(=O)N1CCC(N2Cc3c[nH]c(=O)c4c3c(cn4C)-c3cc(NC(=O)Cc4cnc(C)s4)ccc32)CC1 [Example 75]
Ki (BRD4 (BDII_E352-M457)): 54.6 nM
EC50 [2]: > 1000 nM
Ki (BRD4 (BDI_K57-E168)): 2.54 nM

CC(=O)N1CCC(N2Cc3c[nH]c(=O)c4c3c(cn4C)-c3cc(NC(=O)Cc4cc(F)ccc4Cl)ccc32)CC1 [Example 76]
Ki (BRD4 (BDII_E352-M457)): 17.5 nM
EC50 [2]: 332 nM
Ki (BRD4 (BDI_K57-E168)): 3.46 nM

CC(=O)Nc1ccc2c(c1)-c1cn(C)c3c(=O)[nH]cc(c13)CN2C1CCN(C(C)=O)CC1 [Example 77]
Ki (BRD4 (BDII_E352-M457)): 112 nM
EC50 [2]: > 1000 nM
Ki (BRD4 (BDI_K57-E168)): 4.6 nM

Cn1cc2c3c(c[nH]c(=O)c31)CN(c1ccc(F)cc1F)c1c-2cc(CS(C)(=O)=O)cc1C1CC1 [Example 78]
Ki (BRD4 (BDII_E352-M457)): 0.85 nM
EC50 [2]: 6.28 nM
Ki (BRD4 (BDI_K57-E168)): 1.29 nM

Cn1cc2c3c(c[nH]c(=O)c31)CN(C1CCN(C(=O)OC(C)(C)C)CC1)c1ccc(CS(C)(=O)=O)cc1-2 [Example 80]
Ki (BRD4 (BDII_E352-M457)): 14.5 nM
EC50 [2]: 106 nM
Ki (BRD4 (BDI_K57-E168)): 3.04 nM

COC(=O)N1Cc2c[nH]c(=O)c3c2c(cn3C)-c2cc(CS(C)(=O)=O)ccc21 [Example 81]
Ki (BRD4 (BDII_E352-M457)): 11.1 nM
EC50 [2]: 77.9 nM
Ki (BRD4 (BDI_K57-E168)): 4.97 nM

CCS(=O)(=O)Nc1ccc2c(c1)-c1cn(C)c3c(=O)[nH]cc(c13)CN2c1ccccn1 [Example 82]
Ki (BRD4 (BDII_E352-M457)): 1.47 nM
EC50 [2]: 4.93 nM
Ki (BRD4 (BDI_K57-E168)): 0.83 nM

Reference: patent US8980879B2 (AbbVie Inc., priority 2013, dated 2015)
